Patent US20210113505A1, “METHODS OF TREATING HAIR RELATED CONDITIONS” (Nogra Pharma Limited, priority 2012, published 2021)
Entries after “also recorded” stand apart in the source; their conditions may differ.

What was measured:
Type in all cases: cell-based
[1] = system: human scalp hair follicles; experiment: Hair shaft elongation of organ-cultured hair follicles
Procedure: (§1) Details regarding tissue specimen origin used in the present example are as described in Example 2 above.
Hair shaft length measurements of HFs were performed on individual HFs using a Zeiss inverted binocular microscope with an eyepiece measuring graticule.
(§2) To evaluate apoptotic cells in colocalization with a proliferation marker Ki-67, a Ki-67/terminal dUTP nick-end labeling (TUNEL) double-staining method was used. Cryostat sections were fixed in paraformaldehyde and ethanol-acetic acid (2:1) and labeled with a digoxigenin-deoxy-UTP (ApopTag fluorescein in situ apoptosis detection kit; Intergen, Purchase, N.Y.) in the presence of terminal deoxynucleotidyl transferase, followed by incubation with a mouse anti-Ki-67 antiserum (1:20 in PBS overnight at 4 C; Dako, Glostrup, Denmark). TUNEL-positive cells were visualized by an antidigoxigenin fluorescein isothiocyanate-conjugated antibody (ApopTag kit), whereas Ki-67 was detected by a rhodamine-labeled goat antimouse antibody (Jackson ImmunoResearch, West Grove, Pa.). Negative controls were performed by omitting terminal deoxynucleotidyl transferase and the Ki-67 antibody. Counterstaining was performed with 4′,6-diamidino-2-phenylindole (DAPI) (Roche Molecular Biochemicals GmbH, Mannheim, Germany). Quantitative immunohistomorphometry was performed; Ki-67-, TUNEL-, or DAPI-positive cells were counted in a previously defined reference region of the HF matrix, and the percentage of Ki-67/TUNEL-positive cells were determined. Statistical analysis was performed using a two-tailed Student's t-test for unpaired samples. For meta-analysis purposes, a total of six assays (each with HFs from a different female individual) were run. In order to avoid data distortion by individual experiments, rigid exclusion criteria were defined that allowed to exclude one individual experiment (out of 5-6) per read-out parameter. Since these exclusion criteria differed for each study parameter, different experiments (i.e. one out of 6) were excluded for each assay parameter. […]

[2] = system: human scalp hair follicles; experiment: LDH measurement in supernatant of hair follicle organ culture (cytotoxicity); settings: for LDH activity in the supernatant: 0.1 mM dose, day 6, pooled data
Procedure: as §1
LDH activity in the supernatant can serve as an indicator of cytotoxicity and was measured following the manufacturer's instructions (Cytotoxicity Detection Kit; Roche, Mannheim, Germany). The absorbance of the samples was measured at 490 nm using an ELISA plate-reader.
as §2, with “parameter.” for “parameter. Since these exclusion criteria differed for each study parameter, different experiments (i.e. one out of 6) were excluded for each assay parameter.”

[3] = system: keratin K15 expression; experiment: K15 quantitative immunohistochemistry in organ-cultured human scalp hair follicles; settings: for Keratin-15 immunoreactivity: all concentrations tested, human anagen VI scalp HF organ culture, vs vehicle
Procedure: (§3) Normal human scalp skin was obtained from 6 women undergoing routine face-lift surgery after informed consent. All experiments were performed according to Helsinki guidelines, with appropriate ethics committee approval.
(§4) Normally pigmented anagen VI hair follicles (HFs) (grey/white HFs were excluded from the study) were microdissected from normal human scalp skin and organ cultured following the Philpott model. Compound A or vehicle was administered once for each change of medium (i.e. every 48 h/72 h).
To investigate keratin K15 expression, the tyramide signal amplification method was used as previously described (Kloepper et al., 2008). Briefly, acetone fixed cryosections were washed three times for 5 min using TNT (Tris-HCL NaCl Tween) buffer (0.1 mol/l Tris-HCl, pH 7.5; containing 0.15 mol/l NaCl and 0.05% Tween 20). Next, horseradish peroxidase was blocked by washing with 3% H2O2 in phosphate-buffered saline (PBS) for 15 min. Preincubation was performed with the incubation of avidin and biotin for 15 min and 5% goat normal serum in TNT for 30 min with washing steps in between. Mouse anti-human K15 (clone LHK15, Chemicon, Billerica, USA) was diluted in TNT and incubated overnight at 4° C. followed by a biotinylated secondary antibody goat anti-mouse (1:200 in TNT) for 45 min at RT. Next, streptavidin horseradish peroxidase (TSA kit; Perkin-Elmer, Boston, Mass., USA) was administered (1:100 in TNT) for 30 min at RT. […] The intensity of the immunostaining was quantified by ImageJ software (National Institutes of Health). The staining intensity of defined reference regions in the HF was measured and compared between control and N Compound A-treated groups. The percentage of K15-positive cells in comparison to the total amount of cells in the ORS was calculated.
Statistical analysis was performed using a two-tailed Student's t-test for unpaired samples. […] In order to avoid data distortion by individual experiments, rigid exclusion criteria were defined that allowed to exclude one individual experiment (out of 5-6) per read-out parameter. […]

[4] = system: K19 expression; experiment: K19 quantitative immunohistochemistry in organ-cultured human scalp hair follicles; settings: human scalp HF organ culture; for number of K19-positive cells relative to control: cells in the ORS
Procedure: as §3, §4
A previously described protocol was used to investigate K19 expression (Kloepper et al., 2008). Briefly, acetone-fixed cryosections were pre-treated with goat serum (10% in Tris-buffered saline, Dako). The sections were incubated first with primary antibodies against K19 (mouse anti-human: K19-1:10; overnight, at 4° C.; PROGEN, Heidelberg, Germany;) and then with FITC-labeled goat anti-mouse (1:200 in TBS, for 45 min, RT, Jackson ImmunoResearch) immunoglobulins as secondary antibodies. Counterstaining was performed with DAPI (Boehringer Mannheim, Mannheim, Germany). The intensity of this immunostaining was quantified by ImageJ software (National Institutes of Health). The staining intensity of defined reference regions in the HF was measured and compared between control and Compound A-treated groups. The percentage of K19-positive cells in comparison to the total amount of cells in the ORS was calculated.
Statistical analysis was performed using a two-tailed Student's t-test for unpaired samples. For meta-analysis purposes, a total of six assays (each with HFs from a different female individual) were run. […] In order to avoid data distortion by individual experiments, rigid exclusion criteria were defined that allowed to exclude one individual experiment (out of 5-6) per read-out parameter. Since these exclusion criteria differed for each study parameter, different experiments (i.e. one out of 6, and one out of 5 in the case of keratin 19 analysis) were excluded for each assay parameter. […]

[5] = system: human scalp hair follicles; experiment: HF cycle staging (anagen/catagen) of organ-cultured hair follicles; settings: all concentrations, pooled data
Procedure: as §1
HF cycle staging was carried out according to previously defined morphological criteria, and the percentage of HFs in anagen and early, mid, or late catagen was determined.
To evaluate apoptotic cells in colocalization with a proliferation marker Ki-67, a Ki-67/terminal dUTP nick-end labeling (TUNEL) double-staining method was used. […] TUNEL-positive cells were visualized by an antidigoxigenin fluorescein isothiocyanate-conjugated antibody (ApopTag kit), whereas Ki-67 was detected by a rhodamine-labeled goat antimouse antibody (Jackson ImmunoResearch, West Grove, Pa.). […] Quantitative immunohistomorphometry was performed; Ki-67-, TUNEL-, or DAPI-positive cells were counted in a previously defined reference region of the HF matrix, and the percentage of Ki-67/TUNEL-positive cells were determined. […] In order to avoid data distortion by individual experiments, rigid exclusion criteria were defined that allowed to exclude one individual experiment (out of 5-6) per read-out parameter. […]

[6] = listed as N-acetyl-(R)-(−)-3-(4-aminophenyl)-2-methoxypropionic acid

CO[C@H](Cc1ccc(NC(C)=O)cc1)C(=O)O [Compound A, N-acetyl-(R)-(−)-3-(4-aminophenyl)-2-methoxypropionic acid]
hair shaft elongation ([1]; high dose (1 mM), day 6, pooled data): slightly, but significantly, inhibited; also recorded: inhibits
hair shaft elongation ([1]; high dose (1 mM), day 6, pooled data, listed as N-acetyl-(R)-(−)-3-(4-aminophenyl)-2-methoxypropionic acid): inhibition
hair shaft elongation ([1]; lower concentrations (below 1 mM)): did not have an effect
LDH activity in the supernatant [2]: slight increase
LDH activity in the supernatant [2, 6]: increase
Compound-associated HF toxicity ([2]; under assay conditions, from LDH activity): very low, if any
Keratin-15 immunoreactivity [3]: strongly stimulated
Keratin-15 immunoreactivity [3, 6]: stimulation
number of K15-positive cells ([3]; human scalp HF organ culture, cells in the ORS): did not increase
Keratin 19 immunoreactivity ([4]; all concentrations tested, vs vehicle): strongly stimulated
number of K19-positive cells relative to control [4]: stimulating effect
number of K19-positive cells relative to control [4, 6]: increased numbers
hair cycle effect (catagen induction) [5]: induced catagen; also recorded: catagen-inducing effect
hair cycle effect (catagen induction) [5, 6]: trend toward catagen
